Measured values taken from US8268821B2, “Methods and compositions” (priority 2003, dated 2012).

Test system: cancer-related neuropathic pain
Assay: Open label dose escalation study of flupirtine, case studies JE and RM
Conditions: for WHO PERFORMANCE STATUS: 0=fully active, 4=completely disabled; for WHO PERFORMANCE STATUS / SCORE SLEEP / SCORE POOR CONCENTRATION: day 1 baseline 3; for neuropathic dwascriminant function score: >0 = neuropathic, day 1 baseline 2.448; for freezing pain score / score for increased pain due to touch / score for increased pain due to weather changes / squeezing pain score: day 1 baseline 0; for burning pain score: day 1 baseline 90; for electric pain score / for shooting pain score / numbness score / score for overly sensitive to touch / tingling pain score / unpleasant pain score: day 1 baseline 95; for overwhelming pain score: day 1 baseline 98; for SCORE MOOD / SCORE RELATIONSHIPS / SCORE SLEEP / SCORE GENERAL ACTIVITY / SCORE WALKING / SCORE ENJOYMENT / SCORE TOTAL ACTIVITY: pain interference 1-10; for SCORE MOOD / SCORE RELATIONSHIPS / SCORE CONSTIPATION / SCORE INDIGESTION / LEAST PAIN LAST 24 HRS / PAIN SCORE RIGHT NOW: day 1 baseline 1; for SCORE GENERAL ACTIVITY: day 1 baseline 5; for SCORE WALKING: day 1 baseline 7; for SCORE ENJOYMENT / SCORE TOTAL ACTIVITY / AVERAGE PAIN LAST 24 HOURS: day 1 baseline 8; for SCORE CONSTIPATION / SCORE INDIGESTION / SCORE NAUSEA / SCORE UN[…] GAIT / SCORE POOR CONCENTRATION / SCORE DROWSINESS / SCORE POOR APPETITE: scale 1-4; for SCORE NAUSEA / SCORE UN[…] GAIT: day 1 baseline 2; for SCORE DROWSINESS / SCORE POOR APPETITE: day 1 baseline 4; for LEAST PAIN LAST 24 HRS / PAIN SCORE RIGHT NOW / AVERAGE PAIN LAST 24 HOURS / WORST PAIN SCORE LAST 24 HOURS: scale to 10; for WORST PAIN SCORE LAST 24 HOURS: day 1 baseline 10
[1] = JE day 2, flupirtine 100 mg qid
[2] = JE day 3, flupirtine 100 mg qid
[3] = JE day 4, flupirtine 200 mg qid
[4] = JE day 5, flupirtine 100 mg qid

In the case of CCOC(=O)Nc1ccc(NCc2ccc(F)cc2)nc1N [flupirtine], the “WHO PERFORMANCE STATUS” value [1] is reported as 3, the “neuropathic dwascriminant function score” value [1] is reported as −1.238 and the freezing pain score [1] is reported as 0. The “score for increased pain due to touch” value [1] was 0, the “score for increased pain due to weather changes” value [1] was 0 and the squeezing pain score [1] was 0. The burning pain score [1] was 20, the electric pain score [1] was 0 and the “for shooting pain score” value [1] was 10. The numbness score [1] was 0, the “score for overly sensitive to touch” value [1] was 0 and the tingling pain score [1] was 0. The unpleasant pain score [1] was 0, the overwhelming pain score [1] was 0 and the “SCORE MOOD” value [1] was 1. The “SCORE RELATIONSHIPS” value [1] was 1, the “SCORE SLEEP” value [1] was 1 and the “SCORE GENERAL ACTIVITY” value [1] was 1. The “SCORE WALKING” value [1] was 1, the “SCORE ENJOYMENT” value [1] was 1 and the “SCORE TOTAL ACTIVITY” value [1] was 1. For the same molecule, the “SCORE CONSTIPATION” value [1] was 3, the “SCORE INDIGESTION” value [1] was 1 and the “SCORE NAUSEA” value [1] was 1. The “SCORE UN[…] GAIT” value [1] was 1, the “SCORE POOR CONCENTRATION” value [1] was 1 and the “SCORE DROWSINESS” value [1] was 4. For the same molecule, the “SCORE POOR APPETITE” value [1] was 1, the “LEAST PAIN LAST 24 HRS” value [1] was 0 and the “PAIN SCORE RIGHT NOW” value [1] was 0. For the same molecule, the “AVERAGE PAIN LAST 24 HOURS” value [1] was 2, the “WORST PAIN SCORE LAST 24 HOURS” value [1] was 2 and the “WHO PERFORMANCE STATUS” value [2] was 2. For the same molecule, the “neuropathic dwascriminant function score” value [2] was −1.408, the freezing pain score [2] was 0 and the “score for increased pain due to touch” value [2] was 0. For the same molecule, the “score for increased pain due to weather changes” value [2] was 0, the squeezing pain score [2] was 0 and the burning pain score [2] was 0. The electric pain score [2] was 0, the “for shooting pain score” value [2] was 0 and the numbness score [2] was 0. For the same molecule, the “score for overly sensitive to touch” value [2] was 0, the tingling pain score [2] was 0 and the unpleasant pain score [2] was 0. For the same molecule, the overwhelming pain score [2] was 0, the “SCORE MOOD” value [2] was 1 and the “SCORE RELATIONSHIPS” value [2] was 1. For the same molecule, the “SCORE SLEEP” value [2] was 1, the “SCORE GENERAL ACTIVITY” value [2] was 1 and the “SCORE WALKING” value [2] was 1. For the same molecule, the “SCORE ENJOYMENT” value [2] was 1, the “SCORE TOTAL ACTIVITY” value [2] was 1 and the “SCORE CONSTIPATION” value [2] was 1. The “SCORE INDIGESTION” value [2] was 1, the “SCORE NAUSEA” value [2] was 1 and the “SCORE UN[…] GAIT” value [2] was 1. For the same molecule, the “SCORE POOR CONCENTRATION” value [2] was 1, the “SCORE DROWSINESS” value [2] was 3 and the “SCORE POOR APPETITE” value [2] was 1. For the same molecule, the “LEAST PAIN LAST 24 HRS” value [2] was 0, the “PAIN SCORE RIGHT NOW” value [2] was 0 and the “AVERAGE PAIN LAST 24 HOURS” value [2] was 0. For the same molecule, the “WORST PAIN SCORE LAST 24 HOURS” value [2] was 0, the “WHO PERFORMANCE STATUS” value [3] was 3 and the “neuropathic dwascriminant function score” value [3] was −1.408. For the same molecule, the freezing pain score [3] was 0, the “score for increased pain due to touch” value [3] was 0 and the “score for increased pain due to weather changes” value [3] was 0. The squeezing pain score [3] was 0, the burning pain score [3] was 0 and the electric pain score [3] was 0. The “for shooting pain score” value [3] was 0, the numbness score [3] was 0 and the “score for overly sensitive to touch” value [3] was 0. For the same molecule, the tingling pain score [3] was 0, the unpleasant pain score [3] was 0 and the overwhelming pain score [3] was 0. For the same molecule, the “SCORE MOOD” value [3] was 1, the “SCORE RELATIONSHIPS” value [3] was 1 and the “SCORE SLEEP” value [3] was 1. The “SCORE WALKING” value [3] was 1, the “SCORE ENJOYMENT” value [3] was 1 and the “SCORE TOTAL ACTIVITY” value [3] was 1. For the same molecule, the “SCORE CONSTIPATION” value [3] was 3, the “SCORE INDIGESTION” value [3] was 1 and the “SCORE NAUSEA” value [3] was 1. The “SCORE UN[…] GAIT” value [3] was 4, the “SCORE POOR CONCENTRATION” value [3] was 2 and the “SCORE DROWSINESS” value [3] was 4. The “SCORE POOR APPETITE” value [3] was 1, the “LEAST PAIN LAST 24 HRS” value [3] was 0 and the “PAIN SCORE RIGHT NOW” value [3] was 0. The “AVERAGE PAIN LAST 24 HOURS” value [3] was 0, the “WORST PAIN SCORE LAST 24 HOURS” value [3] was 0 and the “WHO PERFORMANCE STATUS” value [4] was 4. The “neuropathic dwascriminant function score” value [4] was −1.408, the freezing pain score [4] was 0 and the “score for increased pain due to touch” value [4] was 0. The “score for increased pain due to weather changes” value [4] was 0, the squeezing pain score [4] was 0 and the burning pain score [4] was 0. The electric pain score [4] was 0, the “for shooting pain score” value [4] was 0 and the numbness score [4] was 0. For the same molecule, the “score for overly sensitive to touch” value [4] was 0, the tingling pain score [4] was 0 and the unpleasant pain score [4] was 0. The overwhelming pain score [4] was 0, the “SCORE MOOD” value [4] was 1 and the “SCORE RELATIONSHIPS” value [4] was 1. The “SCORE SLEEP” value [4] was 1 and the “SCORE GENERAL ACTIVITY” value [4] was 1.
